Values quoted from earlier work, collected in patent US8709476B2, “Compositions of quaternary ammonium compounds containing bioavailability enhancers” (Supernus Pharmaceuticals, Inc., priority 2003, dated 2014).

Settings: in humans; oral dosage form

O=C(O[C@H]1C[C@H]2CC[C@@H](C1)[N+]21CCCC1)C(O)(c1ccccc1)c1ccccc1 [Trospium chloride]
bioavailability: up to 10%
